Earlier results, collected in patent US20140023718A1, “PROSTAGLANDIN-CONTAINING FAT EMULSION” (FUJIFILM Corporation, priority 2011, published 2014).

Details: 25° C. water

O=C(O)CC(O)C(=O)O (centres unmarked) [malic acid]
pKa1: 3.40 | pKa2: 5.13

CCCC(=O)O [butyric acid]
pKa: 4.63

O=C(O)CCC(=O)O [succinic acid]
pKa1: 4.00 | pKa2: 5.24
